Literature values as cited in paper PMC8287861 (Frontiers in Microbiology, 2021).
≈ marks a conversion by molar mass, not a printed value.

Columns and labels:
Design in all cases: method as in Lomovskaya et al. (2020b)
[1] = tested on: PAM4885 SPM-1; conditions: PAM4885, SPM-1, class B1; ref Lomovskaya et al. (2020b)
[2] = tested on: PAM4790 OXA-10; conditions: PAM4790, OXA-10, class D; ref Lomovskaya et al. (2020b)
[3] = tested on: PAM4907 PER-4; conditions: PAM4907, PER-4, class A; ref Lomovskaya et al. (2020b)
[4] = tested on: PAM4864 SFC-1; conditions: PAM4864, SFC-1, class A-CARB; ref Lomovskaya et al. (2020b)
[5] = tested on: PAM4910 VEB-2; conditions: PAM4910, VEB-2, class A; ref Lomovskaya et al. (2020b)
[6] = tested on: PAM4887 IMP-1; conditions: PAM4887, IMP-1, class B1; ref Lomovskaya et al. (2020b)
[7] = tested on: PAM4175 pUCP24 vector; conditions: ref Lomovskaya et al. (2020b)
[8] = tested on: PAM4917 NDM-7; conditions: PAM4917, NDM-7, class B1; ref Lomovskaya et al. (2020b)
[9] = tested on: PAM4743 CTX-M-15; conditions: PAM4743, CTX-M-15, class A; ref Lomovskaya et al. (2020b)
[10] = tested on: PAM4874 SHV-12; conditions: PAM4874, SHV-12, class A; ref Lomovskaya et al. (2020b)
[11] = tested on: PAM4795 VIM-1; conditions: PAM4795, VIM-1, class B1; ref Lomovskaya et al. (2020b)
[12] = tested on: PAM4825 MIR-1; conditions: PAM4825, MIR-1, class C; ref Lomovskaya et al. (2020b)
[13] = tested on: PAM4890 IMP-19; conditions: PAM4890, IMP-19, class B1; ref Lomovskaya et al. (2020b)
[14] = tested on: PAM4884 ADC-181; conditions: PAM4884, ADC-181, class C; ref Lomovskaya et al. (2020b)
[15] = tested on: PAM4840 OXY-6-2; conditions: PAM4840, OXY-6-2, class A; ref Lomovskaya et al. (2020b)
[16] = tested on: PAM4794 NMC-1; conditions: PAM4794, NMC-1, class A-CARB; ref Lomovskaya et al. (2020b)
[17] = tested on: PAM4878 TEM-10; conditions: PAM4878, TEM-10, class A; ref Lomovskaya et al. (2020b)
[18] = tested on: PAM4886 GES-1; conditions: PAM4886, GES-1, class A; ref Lomovskaya et al. (2020b)
[19] = tested on: PAM4196 IMP-13; conditions: PAM4196, IMP-13, class B1; ref Lomovskaya et al. (2020b)
[20] = tested on: PAM4877 OXA-58; conditions: PAM4877, OXA-58, class D-CARB; ref Lomovskaya et al. (2020b)
[21] = tested on: PAM4881 VIM-7; conditions: PAM4881, VIM-7, class B1; ref Lomovskaya et al. (2020b)
[22] = tested on: PAM4883 GIM-1; conditions: PAM4883, GIM-1, class B1; ref Lomovskaya et al. (2020b)
[23] = tested on: PAM4800 GES-19; conditions: PAM4800, GES-19, class A; ref Lomovskaya et al. (2020b)
[24] = tested on: PAM4217 OXA-48; conditions: PAM4217, OXA-48, class D-CARB; ref Lomovskaya et al. (2020b)
[25] = tested on: PAM4822 CTX-M-27; conditions: PAM4822, CTX-M-27, class A; ref Lomovskaya et al. (2020b)
[26] = tested on: PAM4198 IMP-15; conditions: PAM4198, IMP-15, class B1; ref Lomovskaya et al. (2020b)

Row | SMILES | MIC [1] [µg/mL] | MIC [2] [µg/mL] | MIC [3] [µg/mL] | MIC [4] [µg/mL] | MIC [5] [µg/mL] | MIC [6] [µg/mL] | MIC [7] [µg/mL] | MIC [8] [µg/mL] | MIC [9] [µg/mL] | MIC [10] [µg/mL] | MIC [11] [µg/mL] | MIC [12] [µg/mL] | MIC [13] [µg/mL] | MIC [14] [µg/mL] | MIC [15] [µg/mL] | MIC [16] [µg/mL] | MIC [17] [µg/mL] | MIC [18] [µg/mL] | MIC [19] [µg/mL] | MIC [20] [µg/mL] | also measured
1 | CC(C)(O/N=C(\C(=O)N[C@@H]1C(=O)N2C(C(=O)[O-])=C(C[n+]3ccccc3)CS[C@H]12)c1csc(N)n1)C(=O)O [Ceftazidime, ceftazidime] | >64 | 0.25 (≈ 0.457 µM) | >64 | 2 (≈ 3.66 µM) | >64 | >64 | 0.25 (≈ 0.457 µM) | >64 | 32 (≈ 58.5 µM) | >64 | 64 (≈ 117 µM) | 16 (≈ 29.3 µM) | >64 | 8 (≈ 14.6 µM) | 0.5 (≈ 0.915 µM) | 1 (≈ 1.83 µM) | >64 | 64 (≈ 117 µM) | 64 (≈ 117 µM) | 0.25 (≈ 0.457 µM) | MIC [21]: 0.5 µg/mL (≈ 0.915 µM); MIC [22]: >64 µg/mL; MIC [23]: >64 µg/mL; MIC [24]: 0.25 µg/mL (≈ 0.457 µM); MIC [25]: 64 µg/mL (≈ 117 µM); MIC [26]: 64 µg/mL (≈ 117 µM)
2 | CCN1CCN(C(=O)N[C@@H](C(=O)N[C@@H]2C(=O)N3[C@@H]2SC(C)(C)[C@@H]3C(=O)O)c2ccccc2)C(=O)C1=O [Piperacillin, piperacillin] | 32 (≈ 61.8 µM) | 0.125 (≈ 0.242 µM) | 0.5 (≈ 0.966 µM) | >64 | 16 (≈ 30.9 µM) | 1 (≈ 1.93 µM) | 0.125 (≈ 0.242 µM) | 32 (≈ 61.8 µM) | >64 | >64 | 16 (≈ 30.9 µM) | 8 (≈ 15.5 µM) | 0.25 (≈ 0.483 µM) | 1 (≈ 1.93 µM) | >64 | 16 (≈ 30.9 µM) | 32 (≈ 61.8 µM) | 4 (≈ 7.73 µM) | 0.5 (≈ 0.966 µM) | 4 (≈ 7.73 µM) | MIC [21]: 2 µg/mL (≈ 3.86 µM); MIC [22]: >64 µg/mL; MIC [23]: 8 µg/mL (≈ 15.5 µM); MIC [24]: 16 µg/mL (≈ 30.9 µM); MIC [25]: >64 µg/mL; MIC [26]: 0.5 µg/mL (≈ 0.966 µM)
